Assay results as given in patent US11066368B2, “Process for the preparation and particle size reduction of pirfenidone” (Laurus Labs Limited, priority 2016, dated 2021).

What was measured:
Format in all cases: physicochemical
[1] = Particle size (D90) after ethyl acetate / n-heptane anti-solvent crystallisation
Procedure: The addition of antisolvent at different temperatures leads to formation of pirfenidone particles with different sizes; for instance: anti solvent addition at 0 to −10° C., preferably at −5±2° C. temperature forms small particles (D90: 50-100μ), at 0 to 10° C., preferably at 7±3° C. temperature forms particles of D90 at 100-150μ and at below 45° C. forms particles of D90 at 250-500μ.
(§1) Pirfenidone (83 g) was dissolved in ethyl acetate (425 mL), at 55-65° C., and then added to pre-cooled (−5±2° C.) n-Heptane (425 mL), over a period of 15-20 min, while maintaining temperature below 20° C. The suspension was stirred, at 0-5° C., for 1-2 h; filtered the product washed with chilled ethyl acetate (50 mL). The wet material was dried, at 60° C., under vacuum, for 6-8 h, to afford Pirfenidone as white colored powder. Yield: 65 g, HPLC purity 99.9%, PSD: (D90) 50-100μ.
as §1, with “Pirfenidone (81” for “Pirfenidone (83”, “pre-cooled (7±3°” for “pre-cooled (−5±2°”, “colored powder” for “colored powder.”, “Yield: 61” for “Yield: 65”, “(D90) 100-150μ.” for “(D90) 50-100μ.”
Pirfenidone (81 g) was dissolved in ethyl acetate (500 mL), at 50-55° C., and then added to pre-cooled (8±3° C.) n-Heptane (500 mL), over a period of 15-20 min, while maintaining temperature below 25° C. The suspension was stirred, at 5-10° C., for 1-2 h; filtered the product washed with chilled ethyl acetate (50 mL). The wet material was dried, at 60° C., under vacuum, for 6-8 h, to afford Pirfenidone as white colored powder Yield: 57 g, HPLC purity 99.9%, PSD: (D90) 150-250μ.
Pirfenidone (80 g) was dissolved in ethyl acetate (400 mL), at 55-65° C., and then added to n-Heptane (400 mL), over a period of 5-10 min, while maintaining temperature below 45° C. The suspension was stirred, at 25-30° C., for 1-2 h; filtered the product washed with chilled ethyl acetate (50 mL). The wet material was dried, at 60° C., under vacuum, for 6-8 h, to afford Pirfenidone as white colored powder, Yield: 55 g, HPLC purity 99.9%, PSD: (D90) 250-500μ.

[2] = Particle size distribution after wet milling with high speed homogenizer (Silverson L5M-A); settings: water
Procedure: As used herein, the term “particle size distribution” is expressed in terms of D90, D50 and D10, which corresponds to the diameter of 90 percent by volume of the particles, 50 percent by volume of the particles and 10 percent by volume of the particles are present, respectively.
The particle size distribution of pirfenidone is measured utilizing: Instrument model: Malvern; Mastersizer 3000; particle refraction index of sample: 1.700; Absorption: 0.01 and Analysis model: general purpose, normal sensitivity, non-spherical particles.
Water (300 mL) and Pirfenidone (100 gr; Particle size distribution: D10: 1330 μm; D50: 1950 μm and D90: 2840 μm) were charged into reaction vessel at 25° C. to 35° C. and was placed High speed stirrer/Homogenizer into the reaction mass till required particle size was obtained at 25° C. to 35° C. Particle size distribution of the sample with different time interval was monitored by collecting the sample from reaction mass. After achieving the required particle size, stirred the reaction mixture for 30-60 min at 25° C. to 35° C. Further, the reaction mixture temperature was allowed to cool to 0° C. to 5° C. and stirred for 2-3 hrs at same temperature. Filter the solid and washed with the wet cake with chilled water (100 mL), dried the solid in an oven under vacuum at 60° C. for 4-6 hours.
The following examples were performed using the above described process with different rpm and time; the obtained results are tabulated below: […]

[3] = Dust explosion test by Modified Hartmann Apparatus; parameters: key to Dust explosion class (overall): St0H: No fire or explosion; St1H: Dust fire or mild explosion; St2H: Violent explosion; settings: for Dust explosion Class: sieved through 63μ
Procedure: This test was performed based on procedures from VDI 2263, Part 1 (Section 2.1.1), “Dust fires and dust explosions; hazards, assessment, protective measures”, using a Modified Hartmann Apparatus. Pirfenidone was dried at 50° C. under vacuum, sieved through 63μ sieve. Weighed amount of product was charged into a modified hartmann tube of 1.2 liter volume. The product was converted into a dust cloud in glass cylindrical tube with compressed air and electrodes with continuous spark was used as ignition source to ignite the dust cloud. Based on dust fire or extent of opening of the hinged cover rating 0, 1 or 2 are assigned.

[4] = 2000 RPM, stirring time 120 min
[5] = 2000 RPM, stirring time 240 min

PSD: (D90) ([1]; Example 5: ethyl acetate solution, n-heptane anti-solvent at −5±2° C.): 50-100 μ | PSD: (D90) ([1]; Example 6: ethyl acetate solution, n-heptane anti-solvent at 7±3° C.): 100-150 μ | PSD: (D90) ([1]; Example 7: ethyl acetate solution, n-heptane anti-solvent at 8±3° C., temperature below 25° C.): 150-250 μ | PSD: (D90) ([1]; Example 8: ethyl acetate solution, n-heptane anti-solvent, temperature below 45° C.): 250-500 μ | PSD D10 ([2]; 2000 RPM, stirring time 30 min): 24 μm | PSD D50 ([2]; 2000 RPM, stirring time 30 min): 82 μm | PSD D90 ([2]; 2000 RPM, stirring time 30 min): 230 μm | PSD D10 ([2]; 2000 RPM, stirring time 60 min): 24 μm | PSD D50 ([2]; 2000 RPM, stirring time 60 min): 88 μm | PSD D90 ([2]; 2000 RPM, stirring time 60 min): 200 μm | PSD D10 [2, 4]: 21 μm | PSD D50 [2, 4]: 75 μm | PSD D90 [2, 4]: 165 μm | PSD D10 [2, 5]: 21 μm | PSD D50 [2, 5]: 71 μm | PSD D90 [2, 5]: 154 μm | PSD D10 ([2]; 5000 RPM, stirring time 60 min): 17 μm | PSD D50 ([2]; 5000 RPM, stirring time 60 min): 48 μm | PSD D90 ([2]; 5000 RPM, stirring time 60 min): 108 μm | PSD D10 ([2]; 7000 RPM, stirring time 60 min): 13 μm | PSD D50 ([2]; 7000 RPM, stirring time 60 min): 42 μm | PSD D90 ([2]; 7000 RPM, stirring time 60 min): 91 μm | Dust explosion Class ([3]; Wt. of sample 120 mg, eq. dust concentration 100 g/m3): 1 | Dust explosion Class ([3]; Wt. of sample 240 mg, eq. dust concentration 200 g/m3): 2
SMILES: Cc1ccc(=O)n(-c2ccccc2)c1 [Pirfenidone, 5-methyl-1-phenyl-2-1(H)-pyridone]
Dust explosion class (overall) ([3]; summary of safety studies): St2H
